In patent US20230107216A1, “PANTETHEINE DERIVATIVES AND USES THEREOF” (Comet Therapeutics, Inc., priority 2018, published 2023):
Like-named read-outs stand apart in the source and are kept apart here.

Columns and labels:
[1] = system: Coronary artery smooth muscle cells (CASM3C system); test: BioMAP CASM3C system (IL-1β, TNFα, IFNγ); format: cell-based, human; settings: for inhibition at 10 µM: Homo sapiens, 24 h, read-out: % decrease in Thrombomodulin
[2] = system: Propionic Acidemia (PA) primary fibroblasts GM00371; test: Mitochondrial respiration, XFe96 Extracellular Flux Analyzer (OCR/ECAR), PA fibroblasts GM00371; format: cell-based; settings: Homo sapiens, Fibroblast, read-out: Increase in Maximal Respiratory Capacity AUC; for activation at 50 µM: assay condition C (10 mM glucose, 10% FBS)
[3] = system: Bronchial epithelial cells (BE3C system); test: BioMAP BE3C system (IL-1β, TNFα, IFNγ); format: cell-based, human; settings: 10 uM, procedure of Example 831; for inhibition at 10 µM: Homo sapiens, Epithelial cell, 24 h, read-out: % decrease in MMP-1
[4] = system: Peripheral blood mononuclear cells co-cultured with B-cells (BT system); test: cells; settings: Homo sapiens, 72 h
[5] = system: Venular Endothelial cells (HUVEC) (4H system); test: BioMAP 4H system (IL-4 and histamine); format: cell-based, human; settings: procedure of Example 826; for inhibition at 1 µM: Homo sapiens, HUVEC, 24 h, read-out: % decrease in VEGFRII
[6] = system: Bronchial epithelial cells co-cultured with dermal fibroblast (BF4T system); test: BioMAP BF4T system (TNFα and IL-4); format: cell-based, human; settings: procedure of Example 830
HepG2 cells = test: Glucose uptake (Glucose Uptake-Glo); format: cell-based; settings: Homo sapiens, 10 uM, read-out: % increase in Glucose Uptake
[7] = system: Peripheral blood mononuclear cells co-cultured with venular endothelial cells (HUVEC) (LPS system); test: BioMAP LPS system; format: cell-based, human; settings: procedure of Example 827; for inhibition at 1 µM / activation at 10 µM / inhibition at 10 µM: Homo sapiens, HUVEC, 24 h; for activation at 10 µM: read-out: % increase in sTNFα
[8] = system: Venular Endothelial cells (HUVEC) (3C system); test: BioMAP 3C system (IL-1β, TNFα, IFNγ); format: cell-based, human; settings: 10 uM; procedure of Example 825
Method: The BioMAP platform (BioMAP® Diversity PLUS® Panel from Eurofins) is an in vitro phenotypic profiling technology that screened the compounds of the present disclosure (hereafter indicated as test agents) in human primary cell-based systems modelling complex tissue and disease states. The BioMAP assays were performed using the Eurofin's BioMAP Technology Platform as (see references 1 to 13 in the example 824 section) to model different diseases on primary cell-based model systems. These systems consisted of either single primary cell types or co-culture cells. Adherent cell types were cultured or co-cultured in 96 or 384-well plates until confluence followed by the addition of compounds prepared in DMSO at a final concentration of ≤0.1%. In each cell-based system, primary cells from heathy donors (2-6 donors) were pooled and treated with compounds at 1 and 10 μM dose 1h prior to stimulation and remain in culture as indicated in Example 825, Example 826, Example 827, Example 828, Example 829, Example 830, Example 831, Example 832, Example 833, Example 834, Example 835, Example 836 and Example 837. For on the BioMAP® Diversity PLUS® Panel, please see the following references, which are incorporate herein.
Following the general procedure as described in Example 824, Venular Endothelial cells (HUVEC) (3C system) were treated with IL-1β, TNFα, IFNγ for 24h to model Th1 driven cardiovascular and chronic inflammation diseases in the presence or absence of the compounds. Biomarker read out were; Tissue Factor, ICAM-1, E-selectin, uPAR (CD87), IL-8, MIG, HLA-DR, proliferation and SRB (Sulfo-rhodamine i.e. staining for protein content).

[9] = system: Dermal fibroblasts (HDF3CGF system); test: BioMAP HDF3CGF system (IL-1β, TNFα, IFNγ, EGF, bFGF, PDGF-BB); format: cell-based, human
[10] = system: primary culture of rat embryo mesencephalic cells (microglia, astrocytes and neurons) exposed to LPS; test: Neuroprotective effect on damage induced by LPS on culture of mesencephalic neurons (NO, TNF-α, IL-1β, TH positive neurons); format: cell-based; settings: 50 uM, after 5 days of LPS exposure; for inhibition at 50 µM: Rattus norvegicus, Neuron, 120 h, read-out: % reversion of TH positive neurons
Method: Drug preparation. […] The stock solutions will be prepared 1000× the concentration in 100% DMSO. The final concentration of the vehicle (DMSO) is set at 0.1%.
Test animals. Pregnant Wistar rats (Janvier; France) are used for the study. They are group-housed and maintained in a room with controlled temperature (21-22° C.) and a reversed light-dark cycle (12h/12h; lights on: 17:30-05:30; lights off: 05:30-17:30) with food and water available ad libitum.
The protocol is performed in 3 independent cultures. For each culture, each condition is performed in sextuplicate.
Female rat of 15 days gestation is killed by cervical dislocation. Fetuses are removed from the uterus and their brains are harvested and placed in ice-cold medium (Leibovitz's L15 medium, Gibco). Only ventral mesencephalic flexure is used for the cell preparations. The midbrain is dissociated by trypsinization. The reaction is stopped, and the suspension is triturated and centrifuged. The pellet of dissociated cells is resuspended in culture medium consisted of DMEM-F12 (Gibco), containing 10% FBS (ATCC), 10% Horse serum (Gibco) and 2 mM L-glutamine (Gibco). Viable cells are counted and seeded on 96-well plates, precoated with poly-L-lysine. Cells are maintained in a humidified incubator at 37° C. in 5% CO2-95% air atmosphere. Half of the medium is changed on day 2 and day 5.
Treatment. On day 7, culture media are removed and replaced by new medium consisting of DMEM-F12 (Gibco) supplemented with 2% FBS (ATCC), 2% Horse serum (Gibco) and 2 mM L-glutamine (Gibco) and containing vehicle or test substances. After 1-hour exposure, LPS at 10 ng/ml is added and exposure further continued for 24 hours or 5 days period.
Inflammatory response measurement and neuronal death evaluation. NO production is measured in the media 24h and 5 days after LPS exposure using the Griess reagent kit (Molecular Probes). The Griess reagent Assay is a colorimetric reaction assay which measures the conversion of a sulfanilic salt into an azo dye product by nitrite. Visible wavelength absorbance data is collected using a 96-well plate reader at 570 nm (Multiskan EX, Thermo Fisher, France). IL-1β and TNF-α release are measured in the media 24h after LPS exposure using the ELISA development kit (PeproTech). The ELISA plate, previously coated with anti-IL-1β or anti-TNF-αantibody at 1 μg/ml, is incubated 1h with PBS containing 1% of BSA (bovine serum albumin). After washing four times with PBS containing 0.05% of Tween-20, the plate is successively incubated 2h with supernatant, 2h with biotinylated antibody at 0.5 μg/ml in PBS containing 0.1% of BSA and 0.05% of Tween-20, 45 min with Avidin-HRP conjugated at 1/2000 and 30 min with color ABTS substrate (Sigma). Visible wavelength absorbance data is collected using a 96-well plate reader at 405 nm with wavelength correction set at 650 nm (Multiskan EX, Thermo Fisher, France).
Immunodetection of tyrosine hydroxylase positive neurons. On day 12 (5 days after LPS exposure), cultures are fixed 30 min at 4° C. with paraformaldehyde in PBS (4%, Sigma). Then, cells are successively permeabilized with 0.1% Triton X100 for 30 min, saturated with PBS containing 3% of BSA (bovine serum albumin) and are incubated 2h with anti-tyrosine hydroxylase antibody (Sigma, 1:10000; clone TH-2) at 1/10 000 in PBS containing 0.5% of BSA. Cells are washed three times with PBS containing 0.5% of BSA, and they are incubated 1h with goat anti mouse antibody coupled with AF488 (Invitrogen A11001) diluted at 1/1000 in PBS containing 0.5% of BSA. Finally, nuclei are stained with DAPI at 1/1000 in PBS containing 0.5% of BSA. After rinsing with PBS, the plate is visualized and examined with Cell Insight HCS (Thermo Scientific) to determine the number of tyrosine hydroxylase positive cells per well.
Statistical Analysis. The drug-induced effect on NO and cytokines is calculated by setting the response of the LPS-stimulated control as 100%. […]

[11] = system: Peripheral blood mononuclear cells co-cultured with B-cells (BT system)
[12] = 10 uM, procedure of Example 829
[13] = 10 uM, procedure of Example 833

Compound: COC(=O)CCC(=O)SCCNC(=O)CCNC(=O)[C@H](O)C(C)(C)COC(=O)OCC[N+](C)(C)C [Compound 117, [2-([[(3R)-3-hydroxy-3-[[2-([2-[(4-methoxy-4-oxobutanoyl)sulfanyl]ethyl]carbamoyl)ethyl]carbamoyl]-2,2-dimethylpropoxy]carbonyl]oxy)ethyl]trimethylazanium]
- % decrease in CXCL9 ([1]; 10 uM): ≥10%
- inhibition at 10 µM ([1]; 10 uM): ≥ 10%
- activation at 50 µM [2]: ≥ 10%
- % decrease in tPA [3]: ≥10%
- inhibition at 10 µM [3]: ≥ 10%
- inhibition at 1 µM ([4]; read-out: % decrease in sIL-17): ≥ 20%
- activation at 10 µM ([4]; read-out: % increase in sIL-6): ≥ 10%
- inhibition at 1 µM [5]: ≥ 10%
- % decrease in tPA ([6]; 10 uM): ≥10%
- activation at 10 µM (HepG2 cells): ≥ 30%
- % increase in IL-1α ([7]; 1 uM): ≥10%
- % increase in Tissue Factor ([7]; 1 uM): ≥10%
- inhibition at 1 µM ([7]; 1 uM, read-out: % decrease in sPGE2): ≥ 10%
- activation at 10 µM [7]: ≥ 20%
- % increase in Proliferation (HUVEC) [8]: ≥10%
- activation at 10 µM ([9]; Homo sapiens, Fibroblast, 72 h, 10 uM, read-out: % increase in 72 Hour Proliferation): ≥ 10%

Compound: COC(=O)/C=C/C(=O)SCCNC(=O)CCNC(=O)[C@H](O)C(C)(C)COC(C)=O [Compound 145, methyl (2E)-4-[(2-[3-[(2R)-4-(acetyloxy)-2-hydroxy-3,3-dimethylbutanamido]propanamido]ethyl)sulfanyl]-4-oxobut-2-enoate]
- % decrease in LDLR ([1]; 1 uM, procedure of Example 832): ≥10%
- % decrease in HLA-DR ([1]; 10 uM): ≥10%
- % decrease in NO release relative to LPS alone [10]: ≥35%
- inhibition at 50 µM ([10]; list at threshold 15%): ≥ 15%
- inhibition at 50 µM ([10]; list at threshold 50%): ≥ 50%
- inhibition at 1 µM ([4]; read-out: % decrease in sIL-17): ≥ 10%
- % increase in tPA ([6]; 10 uM): ≥10%
- activation at 1 µM ([6]; Homo sapiens, 24 h, 1 uM, read-out: % increase in VCAM-1): ≥ 10%
- activation at 10 µM (HepG2 cells): ≥ 30%
- inhibition at 10 µM ([7]; read-out: % decrease in IL-1α): ≥ 10%
- inhibition at 10 µM ([7]; read-out: % decrease in IL-8): ≥ 10%
- activation at 10 µM [7]: ≥ 10%
- % decrease in B-cell proliferation ([11]; 1 uM, procedure of Example 829): ≥20%
- % decrease in sTNFα [11, 12]: ≥10%
- % decrease in PBMC cytotoxicity ([11]; human, 72 h, 10 µM): ≥20%
- % decrease in IL-8 [8]: ≥10%
- % decrease in Collagen I [9, 13]: ≥10%
- inhibition at 10 µM ([9]; Homo sapiens, Fibroblast, 24 h, 10 uM, read-out: % decrease in Collagen III): ≥ 10%

Compound: CC(=O)OCCCC(=O)SCCNC(=O)CCNC(=O)[C@H](O)C(C)(C)CO [Compound 1305, 4-[(2-[3-[(2R)-2,4-dihydroxy-3,3-dimethylbutanamido]propanamido]ethyl)sulfanyl]-4-oxobutyl acetate]
- % decrease in M-CSF ([1]; 1 uM, procedure of Example 832): ≥10%
- % decrease in Proliferation ([1]; 1 uM, procedure of Example 832): ≥10%
- % decrease in VCAM-1 ([1]; 1 uM, procedure of Example 832): ≥10%
- % decrease in CXCL9 ([1]; 10 uM): ≥10%
- % decrease in Tissue Factor ([1]; 10 uM): ≥10%
- inhibition at 10 µM ([1]; 10 uM): ≥ 20%
- activation at 50 µM [2]: ≥ 10%
- activation at 10 µM ([2]; assay condition D (1 mM glucose, 10% FBS), 10 μM): ≥ 10%
- inhibition at 10 µM [3]: ≥ 10%
- inhibition at 10 µM ([4]; read-out: % decrease in sIL-17): ≥ 20%
- % decrease in MCP-1 ([5]; 10 uM): ≥10%
- inhibition at 1 µM [5]: ≥ 10%
- activation at 10 µM (HepG2 cells): ≥ 10%
- inhibition at 1 µM ([7]; 1 uM, read-out: % decrease in IL-8): ≥ 10%
- inhibition at 1 µM ([7]; 1 uM, read-out: % decrease in TissueFactor): ≥ 10%
- activation at 10 µM [7]: ≥ 20%
- % increase in B-cell Proliferation [11, 12]: ≥10%
- % increase in Proliferation (HUVEC) [8]: ≥20%
- % decrease in CXCL11/I-TAC [9, 13]: ≥10%
- inhibition at 1 µM ([9]; Homo sapiens, Fibroblast, 24 h, 1 uM, read-out: % decrease in Collagen III): ≥ 10%
